The source of these data is patent US5886162A, “Lipophilic diakylaminomethylene prodrug derivatives for the inhibition of replication of viruses” (Research Foundation of State University of New York, priority 1991, dated 1999).

Several values for one entry are separate records, joined by “and”; a condition that tells them apart may be missing. Equal values may be shown once. Read-outs that look alike come from different tables or passages of the source.

The test system of one series is viral replication. The settings on record: background; cited from earlier work.
For series [1] the following is noted: cited from earlier work.
Series [2] can be described thus: Reverse phase HPLC retention time comparison (lipophilicity). The settings on record: measure of lipophilicity. The class given is physicochemical. From the text: A series of compounds were produced in accord with the method of Example 1 with various substitutions of 2' deoxycytidine at the N^4 position of the dialkylaminomethylene side chain.
Because of economic considerations 2'-deoxycytidine, was used as the parent nucleoside for comparison purposes in this study.

The nature of series [3]: Rate of hydrolysis in phosphate buffer by UV spectroscopy and HPLC. Type of series: physicochemical. The conditions noted are these: 10 mM K-phosphate buffer, pH 7.4, read-out: half-life (t1/2) of hydrolysis (converted). As to the method: The rates of hydrolysis of the different derivatives appear to depend greatly on the structure of the substituent introduced at the exocyclic NH2 group. For example, the half-life (t1/2) of N^4 -dimethylaminomethylene […] (compound 3 in Table 1) is 5 hours at 37° in 10 mM K-phosphate buffer at pH 7.4, as determined by UV spectroscopy and HPLC analysis. Under the same conditions, N^4 -diisopropylamino-methylene-2'-deoxycytidine (compound 7 in Table 1) has a t1/2 =3 days. Thus, there is an order of magnitude difference in the rate of hydrolysis of these two side chains. The variations in the susceptibility to hydrolysis provide another parameter for the optimization of the pharmacokinetic profile.

For series [4], the system named is human immunodeficiency virus (HIV-1, strain LAV). Briefly: NCI in vitro anti-HIV drug screen, antiviral activity. Type of series: cell-based. The conditions noted are these: for activity against human immunodeficiency virus: HIV-1, strain LAV, NCI In-Vitro Testing Program. As to the method:
(§1) The protocol used in NCI's Developmental Therapeutics Program AIDS antiviral drug screening program involves plating of susceptible human "host" cells with and without virus in microculture plates, adding various concentrations of test material, incubating the plates for seven days (during which time infected, non-drug treated control cells are largely or totally destroyed by the virus), and then determining the number of remaining viable cells using a calorimetric endpoint. The dose dependent antiviral activity and cytotoxicity were determined and plotted on a graph illustrated as FIG. 1.
(§2) Two parameters are extracted from the curves illustrated in FIG. 1: the EC50, representing the concentration of drug that results in a 50% reduction of the viral cytopathic effect; and the IC50, representing the concentration of drug resulting in 50% cytotoxicity (growth inhibition derived from the normal, uninfected cultures). An in-vitro therapeutic index (TI) may be calculated as the ratio (IC50 /EC50)if both values are obtained.

For the next series, the system named is HIV. Briefly: NCI in vitro anti-HIV drug screen, protection of CEM cells against HIV. Type of series: cell-based. The settings on record: Human immunodeficiency virus 1, CCRF-CEM, 168 h; CEM cell line; read-out: concentration giving complete protection against HIV. As to the method: as §1, §2
Series [5] can be described thus: NCI in vitro anti-HIV drug screen, cytotoxicity, CEM cells. Type of series: cell-based, human. The conditions noted are these: human, cem cells, CEM, read-out: IC50 (cytotoxicity). As to the method:
as §1, §2

A further series has as its system CEM. The description is as above. The settings on record: CEM cell line, 8 micromolar. Type of series: cell-based, human. The procedure: as §1, §2
Series [6] can be described thus: NCI in vitro anti-HIV drug screen, cytotoxicity, ATH8 cells. The settings on record: human, ATH8, test of 9-08-87, uninfected cultures, seven days, read-out: IC50 (cytotoxicity). Type of series: cell-based. The procedure: as §1, §2
The nature of series [7]: NCI in vitro anti-HIV drug screen, cytotoxicity, C3-44 cells. Type of series: cell-based. The settings on record: human, C3-44, tests of 3-15-88 and 3-16-88, uninfected cultures, seven days, read-out: IC50 (cytotoxicity). As to the method: as §1, §2
Series [8] can be described thus: NCI in vitro anti-HIV drug screen, cytotoxicity, LDV-7 cells. The conditions noted are these: human, LDV-7, tests of 3-15-88, 3-16-88, 3-25-88, uninfected cultures, seven days, read-out: IC50 (cytotoxicity). Type of series: cell-based. The procedure:
as §1, §2

Series [9] can be described thus: NCI in vitro anti-HIV drug screen, cytotoxicity, MT-2 cells. The settings on record: human, MT-2, tests of 1-29-88 and 3-25-88, uninfected cultures, seven days, read-out: IC50 (cytotoxicity). Type of series: cell-based. As to the method:
as §1, §2

A short description of series [10]: NCI in vitro anti-HIV drug screen, cytotoxicity, five different cell lines. The settings on record: human; all five different cell lines; IC50 could not be reached up to highest concentration employed; read-out: IC50 (50% cytotoxicity). Type of series: cell-based, human. As to the method: as §1, §2
Series [11] deals with five different cell lines. The description is as above. The class given is cell-based, human. The settings on record: all five different cell lines, up to highest concentration employed. The procedure: as §1, §2
Another series deals with viral p24 antigen. Briefly: Viral p24 antigen by enzyme-linked immunosorbent assay in CEM cells. Type of series: cell-based, HIV. The conditions noted are these: FIG. 2.

On to `Nc1ncnc2c1ncn2[C@H]1CC[C@@H](CO)O1` [2', 3'-dideoxyadenosine], for which, in the series with viral replication, the “inhibition of viral replication” value is on record as “effective in inhibiting viral replication”.
Consider `Cc1cn([C@H]2C[C@H](N=[N+]=[N-])[C@@H](CO)O2)c(=O)[nH]c1=O` [AZT], for which the half-life entry in series [1] (human, in vivo) is reported as “short half-life”. Also, the therapeutic benefit result in series [1] (patients with AIDS or AIDS related complex (ARC)) is “considerable therapeutic benefit”. Further, the bone marrow toxicity entry in [1] (patients, ddC compared to AZT, Phase I and II trials) is reported as “severe bone marrow toxicity”.
On to `Nc1ccn([C@H]2C[C@H](O)[C@@H](CO)O2)c(=O)n1` [Compound 1, 2'-Deoxycytidine, reference compound], for which, in series [2], the “RETENTION TIME” value stood at 2.13 min.
Still for that read-out and setting: next, `O=c1nc(N=CN2CCOCC2)ccn1[C@H]1C[C@H](O)[C@@H](CO)O1` [Compound 2, N^4 -Morpholinomethylene-2'-deoxycytidine]: 3.07 min.
Turning to `CN(C)C=Nc1ccn([C@H]2C[C@H](O)[C@@H](CO)O2)c(=O)n1` [Compound 3, N^4-dimethylaminomethylene-2'-deoxycytidine], the “RETENTION TIME” value in series [2] was 3.26 min. In series [3] (37°), the half-life is 5 h.
Regarding `O=c1nc(N=CN2CCCC2)ccn1[C@H]1C[C@H](O)[C@@H](CO)O1` [Compound 4, N^4 -Pyrrolidinomethylene-2'-deoxycytidine], the “RETENTION TIME” value in series [2] was 5.16 min.
On to `CCN(C=Nc1ccn([C@H]2C[C@H](O)[C@@H](CO)O2)c(=O)n1)CC` [Compound 5, N^4 -Diethylaminomethylene-2'-deoxycytidine], for which the “RETENTION TIME” value in [2] turned out to be 6.44 min.
For the compound `O=c1nc(N=CN2CCCCC2)ccn1[C@H]1C[C@H](O)[C@@H](CO)O1` [Compound 6, N^4 -Piperidinomethylene-2' deoxycytidine], the “RETENTION TIME” value in series [2] is listed as 7.79 min.
Consider `CC(C)N(C=Nc1ccn([C@H]2C[C@H](O)[C@@H](CO)O2)c(=O)n1)C(C)C` [Compound 7, N^4 -Diisopropylamino-methylene-2'-deoxycytidine], for which the half-life in series [3] (same conditions: 37°) was 72 h.
As for `CC1CCCC(C)N1C=Nc1ccn([C@H]2C[C@H](O)[C@@H](CO)O2)c(=O)n1` (some centres unmarked) [Compound 8, N^4-2,6-Dimethylpiperidino-methylene-2'-deoxycytidine], the “RETENTION TIME” value in [2] is given as 21.81 min.
Still for that read-out and setting: in the case of `CCCCN(C=Nc1ccn([C@H]2C[C@H](O)[C@@H](CO)O2)c(=O)n1)CCCC` [Compound 9, N^4 -Di-n-butylamino-methylene-2'-dioxycytidine] it was 125 min.
Turning to `CN(C)C=Nc1ccn([C@H]2CC[C@@H](CO)O2)c(=O)n1` [DAM-ddC, N^4-dimethylaminomethylene-2', 3'-dideoxycytidine], the “activity against human immunodeficiency virus” value in series [4] is reported as “Significant activity”. For the same compound, the antiviral activity entry in [4] (anti-HIV drug screen, FIG. 3) is recorded as “significant antiviral activity”.
As to `CN(C)C=Nc1ccn([C@H]2C[C@H](F)[C@@H](CO)O2)c(=O)n1` [DDFC, N^4-dimethylaminomethylene-2', 3'-dideoxy-3'-fluorocytidine], in series [4] (FIG. 1, several cell lines), the “antiviral activity in several cell lines” value is given as “significant antiviral activity”. In addition, in [4], the “activity against human immunodeficiency virus” value was “Significant activity”. The EC100 in the series on HIV is 8 µM. In addition, the CC50 at 168 h was > 200 nM and > 0.055 µg/mL in series [5] (test of 1-23-88, highest concentration tested); > 200 µM and > 56 µg/mL in series [5] (tests of 1-13-88, 3-15-88, 3-25-88, 3-16-88, uninfected cultures, seven days); > 200 µM and > 56 µg/mL in series [6]; > 200 µM and > 56 µg/mL in series [7]; > 200 µM and > 56 µg/mL in series [8]; > 200 µM and > 56 µg/mL in series [9]. The CC50 at 168 h in series [10] was > 200 µM. Also, the “cytotoxicity at the concentration of complete protection” value in the series on CEM is on record as “without any cytotoxicity”. For the same compound, the cytotoxicity observed result in series [11] was “uniformly very little cytotoxicity”. Also, the “correlation of protection against cytopathic effect of HIV with p24 antigen” value in the series with viral p24 antigen is on record as “correlated with the decrease in the presence of viral p24 antigen”.
With `Nc1ccn([C@H]2CC[C@@H](CO)O2)c(=O)n1` [ddC, 2', 3'-dideoxycytidine], the “inhibition of viral replication” value in the series with viral replication is given as “effective in inhibiting viral replication”. Also, the dose limiting toxicity result in series [1] (Phase I and II trials) is on record as “peripheral neuropathy”. Moreover, in [1] (human, in vivo), the bone marrow toxicity entry is “much less bone marrow suppression”.
